Reference: ChEMBL document CHEMBL1275247, “Pharmacokinetics and safety of CXA-101, a new antipseudomonal cephalosporin, in healthy adult male and female subjects receiving single- and multiple-dose intravenous infusions” (Antimicrob Agents Chemother, 2010)

Legend:
[1] = Tmax in healthy human at 500 mg, iv administered as single dose as 1 hr iv infusion; format: ADME, organism-based; conditions: in vivo
[2] = Clearance in healthy human at 2000 mg, iv administered as single dose as 1 hr iv infusion; format: ADME, organism-based; conditions: in vivo
[3] = Renal clearance in healthy human at 1500 mg, iv administered as single dose as 1 hr iv infusion; format: ADME, organism-based, Kidney; conditions: in vivo, read-out: CL_renal
[4] = Drug recovery in urine of healthy human at 1000 mg, iv administered as single dose as 1 hr iv infusion after 24 hrs; format: ADME, organism-based; conditions: read-out: Activity
[5] = Half-life in plasma of healthy human 1000 mg administered as single ascending dose, iv for 1 hr infusion; format: ADME, organism-based
[6] = Mean residence time in healthy human at 250 mg, iv administered as single dose as 1 hr iv infusion; format: ADME, organism-based; conditions: in vivo
[7] = Mean residence time in healthy human at 500 mg, iv administered as single dose as 1 hr iv infusion; format: ADME, organism-based; conditions: in vivo
Homo sapiens [8] = assay: Toxicity in healthy human assessed as occurrence of abdominal pain at 1000 mg, iv administered as single dose as 1 hr iv infusion; format: organism-based, Abdomen; conditions: in vivo
Homo sapiens [9] = assay: Toxicity in healthy human assessed as occurrence of nausea at 1000 mg, iv administered as single dose as 1 hr iv infusion; format: organism-based; conditions: in vivo
[10] = Cmax in healthy human at 500 mg, iv administered as 1 hr infusion every 8 hrs for 10 days measured on day 10; format: ADME, organism-based; parameters: dose 500 mg, route intravenous; conditions: in vivo
[11] = Tmax in healthy human at 500 mg, iv administered as 1 hr infusion every 8 hrs for 10 days measured on day 10; format: ADME, organism-based; conditions: in vivo
[12] = Tmax in healthy human at 1000 mg, iv administered as 1 hr infusion every 8 hrs for 10 days measured on day 10; format: ADME, organism-based; conditions: in vivo
[13] = AUC (0 to infinity) in healthy human at 1000 mg, iv administered as 1 hr infusion every 8 hrs for 10 days measured on day 10; format: ADME, organism-based; parameters: dose 1000 mg, time infinity, route intravenous; conditions: plasma
[14] = Volume of distribution at steady state in healthy human at 1000 mg, iv administered as 1 hr infusion every 8 hrs for 10 days measured on day 10; format: ADME, organism-based; conditions: in vivo
[15] = Drug recovery in urine of healthy human at 500 mg, iv administered as 1 hr infusion every 8 hrs for 10 days measured on day 1; format: ADME, organism-based; conditions: read-out: Activity

Tmax [1]: 1.03 h | clearance [2]: 96.9 mL/min | CL renal at 1 h [3]: 96.2 mL/min | dose excreted at 24 h [4]: 85.2% | half-life [5]: 2.25 h | MRT [6]: 2.09 h | MRT [7]: 2.5 h | Cmax [10]: 33300 ng/mL | Tmax [11]: 0.93 h | Tmax [12]: 1.05 h | AUC(0-inf) [13]: 143 µg·h/mL | Vd [14]: 17.1 L | dose excreted at 1 day [15]: 82.9%
Compound: Cn1c(N)c(NC(=O)NCCN)c[n+]1CC1=C(C(=O)O)N2C(=O)[C@@H](NC(=O)/C(=N\OC(C)(C)C(=O)[O-])c3nsc(N)n3)[C@H]2SC1 [CEFTOLOZANE]
Activity (Homo sapiens [8]): Non-toxic | Activity (Homo sapiens [9]): Non-toxic
